These results are taken from ChEMBL document CHEMBL4420081, “Novel benzylamino substituted quinazolines and derivatives as sos1 inhibitors” (2018).

The inhibition is the drop in the measured response relative to a control, in per cent.

Molecules are shown by their SMILES. The source made the active and inactive calls. No cut-off for these calls is given here.

Experiment [1] relates to MIA PaCa-2. The conditions noted are these: Homo sapiens, 50 mg/kg.
Description: Antitumor activity against human MIAPaCa2 cells grown under 3D anchorage-independent soft-agar conditions at xenografted in BomTacNMRI-Foxn1 nu mouse assessed as inhibition of tumor regression at 50 mg/kg, po BID relative to control
Experiment [2] deals with A549. As to the kind of experiment: Induction of apoptosis in human A549 cells grown under 3D anchorage-independent soft-agar conditions at grown under 3D anchorage-independent soft-agar conditions assessed as induction of PARP cleavage at 1 uM in presence of 10 nM of paclitaxel incubated for 24 to 48 hrs by mesoscale assay. It is filed as functional, cell-based.
For experiment [3], the system named is NCI-H358. In words: Induction of apoptosis in human NCI-H358 cells grown under 3D anchorage-independent soft-agar conditions at grown under 3D anchorage-independent soft-agar conditions assessed as induction of PARP cleavage at 1 uM in presence of 125 nM of afatinib incubated for 24 hrs by mesoscale assay. The format is functional, cell-based.
Experiment [4] concerns NCI-H358. In words: Induction of apoptosis in human NCI-H358 cells grown under 3D anchorage-independent soft-agar conditions at grown under 3D anchorage-independent soft-agar conditions assessed as induction of PARP cleavage at 1 uM incubated for 24 to 72 hrs by mesoscale assay. It is filed as functional, cell-based.
Experiment [5] addresses T1, Mitogen-activated protein kinase; ERK1/ERK2 (Homo sapiens) (UniProt P27361+P28482). As to the kind of experiment: Inhibition of ERK1/2 phosphorylation at Thr202/Tyr204 residues in human MIAPaCa2 cells grown under 3D anchorage-independent soft-agar conditions at 50 nM incubated for 2 to 8 hrs by Western blotting analysis relative to control. It is filed as cell-based. Background: In western blotting, separated proteins are transferred to a membrane and probed.

Experiment [6] relates to MIA PaCa-2. As to the kind of experiment: Antitumor activity against human MIAPaCa2 cells grown under 3D anchorage-independent soft-agar conditions at xenografted in BomTacNMRI-Foxn1 nu mouse assessed as inhibition of tumor regression at 0.125 mg/kg, po BID relative to control. The format is functional, organism-based.
Experiment [7] has as its system MIA PaCa-2. In words: Antitumor activity against human MIAPaCa2 cells grown under 3D anchorage-independent soft-agar conditions at xenografted in BomTacNMRI-Foxn1 nu mouse assessed as inhibition of tumor regression at 0.05 mg/kg, po BID relative to control. It is filed as functional, organism-based.
In experiment [8] the target is T1, Mitogen-activated protein kinase; ERK1/ERK2 (Homo sapiens). In words: Inhibition of ERK1/2 phosphorylation in human MIAPaCa2 cells grown under 3D anchorage-independent soft-agar conditions at assessed as increase in MEK1/2 phosphorylation at Ser 217/221 residues at 25 nM incubated for 2 to 8 hrs by Western blotting analysis. It is filed as cell-based.
Experiment [9] relates to NCI-H358. As to the kind of experiment: Induction of apoptosis in human NCI-H358 cells grown under 3D anchorage-independent soft-agar conditions at grown under 3D anchorage-independent soft-agar conditions assessed as induction of PARP cleavage at 125 nM incubated for 48 hrs by mesoscale assay. It is filed as functional, cell-based.
In experiment [10] the test system is NCI-H2122. In words: Growth inhibition of human NCI-H2122 cells grown under 3D anchorage-independent soft-agar conditions at 123 nM incubated for 14 days by alamar blue dye based assay relative to control. The format is functional. The conditions noted are these: NCI-H2122, 336 h, read-out: GI. For orientation: The colour change of resazurin is a common sign of viable cells or microbes.

For experiment [11], the system named is NCI-H2122. As to the kind of experiment: Growth inhibition of human NCI-H2122 cells grown under 3D anchorage-independent soft-agar conditions at 3330 nM incubated for 14 days by alamar blue dye based assay relative to control. The format is functional. The conditions noted are these: NCI-H2122, 336 h, read-out: GI.
The test system of experiment [12] is NCI-H2122. In words: Growth inhibition of human NCI-H2122 cells grown under 3D anchorage-independent soft-agar conditions at 164 nM incubated for 14 days by alamar blue dye based assay relative to control. The format is functional. The conditions noted are these: NCI-H2122, 336 h, read-out: GI.
For experiment [13], the system named is NCI-H2122. As to the kind of experiment: Growth inhibition of human NCI-H2122 cells grown under 3D anchorage-independent soft-agar conditions at 1110 nM incubated for 14 days by alamar blue dye based assay relative to control. The format is functional. The conditions noted are these: NCI-H2122, 336 h, read-out: GI.
The test system of experiment [14] is NCI-H2122. In words: Growth inhibition of human NCI-H2122 cells grown under 3D anchorage-independent soft-agar conditions at 370 nM incubated for 14 days by alamar blue dye based assay relative to control. The conditions noted are these: NCI-H2122, 336 h, read-out: GI. It is filed as functional.

T1 sequence (P27361 whole entry, looked up): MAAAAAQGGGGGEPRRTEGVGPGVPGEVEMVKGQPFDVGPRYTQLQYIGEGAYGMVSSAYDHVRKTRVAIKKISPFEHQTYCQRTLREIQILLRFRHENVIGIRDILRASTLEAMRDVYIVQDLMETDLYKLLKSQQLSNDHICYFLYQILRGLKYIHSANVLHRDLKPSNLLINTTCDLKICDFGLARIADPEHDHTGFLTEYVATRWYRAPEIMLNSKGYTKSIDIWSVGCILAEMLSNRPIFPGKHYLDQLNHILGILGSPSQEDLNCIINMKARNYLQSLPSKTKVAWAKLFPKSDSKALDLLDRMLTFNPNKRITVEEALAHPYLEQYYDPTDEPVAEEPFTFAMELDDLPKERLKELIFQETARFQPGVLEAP
T1 sequence (P28482 whole entry, looked up): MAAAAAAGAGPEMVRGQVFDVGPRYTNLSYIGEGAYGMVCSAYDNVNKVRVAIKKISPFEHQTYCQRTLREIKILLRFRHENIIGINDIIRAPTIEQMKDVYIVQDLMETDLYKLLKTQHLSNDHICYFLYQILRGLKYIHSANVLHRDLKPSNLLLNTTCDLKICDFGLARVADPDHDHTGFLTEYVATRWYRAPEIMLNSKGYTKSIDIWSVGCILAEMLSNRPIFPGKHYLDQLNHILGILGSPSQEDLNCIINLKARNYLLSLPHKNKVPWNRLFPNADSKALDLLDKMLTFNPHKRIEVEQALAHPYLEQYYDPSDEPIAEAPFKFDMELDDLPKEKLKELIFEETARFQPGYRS

`COc1cc2nc(C)nc(N[C@H](C)c3cc(N)cc(C(F)(F)F)c3)c2cc1O[C@H]1CCOC1`: in experiment [1], the inhibition result is “inactive”. For the same compound, the result in experiment [2] and in [3] was Active. In addition, in [4], the result was inactive.
The compound `CC(=O)Nc1cccc(-n2c(=O)n(C3CC3)c(=O)c3c(Nc4ccc(I)cc4F)n(C)c(=O)c(C)c32)c1` registered an inhibition in experiment [5] of 65 to 75%. Moreover, the inhibition result in experiment [6] and in [7] was “inactive” in each case. For the same compound, the inhibition result in [8] was “Active”.
For `CN(C)C/C=C/C(=O)Nc1cc2c(Nc3ccc(F)c(Cl)c3)ncnc2cc1O[C@H]1CCOC1`, the result in experiment [9] was Active.
As to `CCN1CCN(Cc2ccc(Nc3ncc(F)c(-c4cc(F)c5nc(C)n(C(C)C)c5c4)n3)nc2)CC1` [ABEMACICLIB], the inhibition of growth at 0.123 µM in [10] is 10%. In [11], the inhibition of growth at 3.33 µM was 81%. For the same compound, in experiment [12], the inhibition of growth at 0.164 µM was found to be 103%. Further, the inhibition of growth at 1.11 µM in experiment [13] turned out to be 91%. For the same compound, in [14], the inhibition of growth at 0.37 µM is 73%.
